# Measured values as given in USRE49035E1, “Traditional Chinese medicine composition, and preparation and application thereof” (Tasly Pharmaceutical Group Co., Ltd., priority 2013, dated 2022).
# How the values were obtained:
# Assay type in all cases: in vivo
# [1] = system: ADP-induced platelet aggregation; experiment: ADP-induced platelet aggregation rate trial in rabbits; details: ADP final 3 μg/ml; dose 60 mg/kg intragastrically once a day for 7 d
# Experimental: (§1) The rabbits were randomly grouped into 4 groups: the model group was given with distilled water, the aspirin group ([…]), Extract A groups of low dose and high dose at 42 and 84 mg/kg (respectively 1 2 times of clinic equivalent dosage), intragastrically administrated, once a day for 7 consecutive days. The volume of medicine administrated was 1 ml/kg body weight. 60 min after intragastric administration on 7th day, the animals were anesthetized locally, blooded through carotid artery, anticoagulated with sodium citrate (3.8%) 1:9 and centrifugated at 1000 r/min for 10 min. Platelet-rich plasma (PRP) was taken and the remain centrifugated at 3000 r/min to take platelet-poor plasma (PPP. Aggregation was induced by ADP (final concentration 3 μg/ml), AA (final concentration 80 μg/ml) and collagen (5 μg/ml). […] platelet aggregation & coagulation factor analyzer was used to measure the maximum platelet aggregation rate and to calculate inhibition rate according to following formula. [formula]
# [2] = system: AA-induced platelet aggregation; experiment: AA-induced platelet aggregation rate trial in rabbits; details: AA final 80 μg/ml; dose 60 mg/kg intragastrically once a day for 7 d
# Experimental: as §1
# [3] = system: collagen-induced platelet aggregation; experiment: Collagen-induced platelet aggregation rate trial in rabbits; details: collagen 5 μg/ml; dose 60 mg/kg intragastrically once a day for 7 d
# Experimental: as §1
compound,measurement,setting,value
CC(=O)Oc1ccccc1C(=O)O [Aspirin],Platelet aggregation rate,[1],19.15 ± 4.08 %
same,Platelet aggregation rate,[2],5.80 ± 1.85 %
same,Platelet aggregation rate,[3],6.06 ± 2.07 %
